Measurements from patent US9469650B2, “Melampomagnolide B derivatives” (BOARD OF TRUSTEES OF THE UNIVERSITY OF ARKANSAS, priority 2013, dated 2016).

Assays:
[1] = tested on: SK-MEL-2; test: panel of 60 human tumor cell lines, growth inhibition (Melanoma); details: SK-MEL-2
[2] = tested on: OVCAR-3; test: panel of 60 human tumor cell lines, growth inhibition (Ovarian Cancer); details: OVCAR-3
[3] = tested on: HCT-116; test: panel of 60 human tumor cell lines, growth inhibition (Colon Cancer); details: HCT-116
[4] = tested on: NCI/ADR-RES; test: panel of 60 human tumor cell lines, growth inhibition (Ovarian Cancer)
[5] = tested on: SK-MEL-5; test: panel of 60 human tumor cell lines, growth inhibition (Melanoma); details: 8K-MEL-5
[6] = tested on: M14; test: as above; details: M14
[7] = tested on: T-47D; test: panel of 60 human tumor cell lines, growth inhibition (Breast Cancer); details: T-47D
[8] = tested on: MCF7; test: as above; details: MCF7
[9] = tested on: LOX IMVI; test: panel of 60 human tumor cell lines, growth inhibition (Melanoma)
[10] = tested on: UO-31; test: panel of 60 human tumor cell lines, growth inhibition (Renal Cancer); details: UO-31
[11] = tested on: SK-MEL-28; test: panel of 60 human tumor cell lines, growth inhibition (Melanoma); details: SK-MEL-28
[12] = tested on: SNB-75; test: panel of 60 human tumor cell lines, growth inhibition (CNS Cancer); details: SNB-75
[13] = tested on: CAKI-1; test: panel of 60 human tumor cell lines, growth inhibition (Renal Cancer); details: CAKI-1
[14] = tested on: MOLT-4; test: panel of 60 human tumor cell lines, growth inhibition (Leukemia); details: MOLT-4
[15] = tested on: SW-620; test: panel of 60 human tumor cell lines, growth inhibition (Colon Cancer); details: SW-620
[16] = tested on: PC-3; test: panel of 60 human tumor cell lines, growth inhibition (Prostate Cancer); details: PC-3
[17] = tested on: MDA-MB-231/ATCC; test: panel of 60 human tumor cell lines, growth inhibition (Breast Cancer); details: MDA-MB-231/ATCC
[18] = tested on: A549/ATCC; test: panel of 60 human tumor cell lines, growth inhibition (Non-Small Cell Lung Cancer); details: A549/ATCC
[19] = tested on: SN12C; test: panel of 60 human tumor cell lines, growth inhibition (Renal Cancer)

C=C1C(=O)O[C@H]2[C@H]1CC/C(COC(=O)N1CCC(F)(F)CC1)=C\CC[C@@]1(C)O[C@@H]21 [JVM 2-66]
GI50 [1]: 2930 nM
TGI [1]: 8.95E−6
Percent Growth ([1]; Log10 Concentration −4.0): −84%
Percent Growth ([1]; Log10 Concentration −5.0): −5%
Percent Growth ([1]; Log10 Concentration −6.0): 98%
Percent Growth ([1]; Log10 Concentration −7.0): 99%
Percent Growth ([1]; Log10 Concentration −8.0): 100%
GI50 [2]: 1690 nM
TGI [2]: 4.03E−6
Percent Growth ([2]; Log10 Concentration −4.0): −99%
Percent Growth ([2]; Log10 Concentration −5.0): −52%
Percent Growth ([2]; Log10 Concentration −6.0): 80%
Percent Growth ([2]; Log10 Concentration −7.0): 95%
Percent Growth ([2]; Log10 Concentration −8.0): 101%
GI50 [3]: 1410 nM
TGI [3]: 3.30E−6
Percent Growth ([3]; Log10 Concentration −4.0): −100%
Percent Growth ([3]; Log10 Concentration −5.0): −65%
Percent Growth ([3]; Log10 Concentration −6.0): 70%
Percent Growth ([3]; Log10 Concentration −7.0): 93%
Percent Growth ([3]; Log10 Concentration −8.0): 99%
GI50 [4]: 5220 nM
TGI [4]: 2.08E−5
Percent Growth ([4]; Log10 Concentration −4.0): −65%
Percent Growth ([4]; Log10 Concentration −5.0): 30%
Percent Growth ([4]; Log10 Concentration −6.0): 99%
Percent Growth ([4]; Log10 Concentration −7.0): 99%
Percent Growth ([4]; Log10 Concentration −8.0): 100%
GI50 [5]: 3810 nM
TGI [5]: 1.50E−5
Percent Growth ([5]; Log10 Concentration −4.0): −96%
Percent Growth ([5]; Log10 Concentration −5.0): 21%
Percent Growth ([5]; Log10 Concentration −6.0): 91%
Percent Growth ([5]; Log10 Concentration −7.0): 99%
Percent Growth ([5]; Log10 Concentration −8.0): 99%
Percent Growth ([6]; Log10 Concentration −4.0): −85%
Percent Growth ([6]; Log10 Concentration −5.0): 8%
Percent Growth ([6]; Log10 Concentration −6.0): 85%
Percent Growth ([6]; Log10 Concentration −7.0): 87%
Percent Growth ([6]; Log10 Concentration −8.0): 96%
GI50 [7]: 3070 nM
TGI [7]: 1.64E−5
Percent Growth ([7]; Log10 Concentration −4.0): −45%
Percent Growth ([7]; Log10 Concentration −5.0): 13%
Percent Growth ([7]; Log10 Concentration −6.0): 86%
Percent Growth ([7]; Log10 Concentration −7.0): 84%
Percent Growth ([7]; Log10 Concentration −8.0): 93%
GI50 [8]: 1620 nM
TGI [8]: 4.91E−6
Percent Growth ([8]; Log10 Concentration −4.0): −75%
Percent Growth ([8]; Log10 Concentration −5.0): −32%
Percent Growth ([8]; Log10 Concentration −6.0): 72%
Percent Growth ([8]; Log10 Concentration −7.0): 83%
Percent Growth ([8]; Log10 Concentration −8.0): 89%
GI50 [9]: 2230 nM
TGI [9]: 5.77E−6
Percent Growth ([9]; Log10 Concentration −4.0): −89%
Percent Growth ([9]; Log10 Concentration −5.0): −29%
Percent Growth ([9]; Log10 Concentration −6.0): 92%
Percent Growth ([9]; Log10 Concentration −7.0): 93%
Percent Growth ([9]; Log10 Concentration −8.0): 96%
GI50 [10]: 1990 nM
TGI [10]: 5.44E−6
Percent Growth ([10]; Log10 Concentration −4.0): −88%
Percent Growth ([10]; Log10 Concentration −5.0): −30%
Percent Growth ([10]; Log10 Concentration −6.0): 84%
Percent Growth ([10]; Log10 Concentration −7.0): 86%
Percent Growth ([10]; Log10 Concentration −8.0): 80%
GI50 [11]: 2510 nM
TGI [11]: 7.42E−6
Percent Growth ([11]; Log10 Concentration −4.0): −84%
Percent Growth ([11]; Log10 Concentration −5.0): −14%
Percent Growth ([11]; Log10 Concentration −6.0): 92%
Percent Growth ([11]; Log10 Concentration −7.0): 94%
Percent Growth ([11]; Log10 Concentration −8.0): 102%
GI50 [12]: 6130 nM
TGI [12]: 2.03E−5
Percent Growth ([12]; Log10 Concentration −4.0): −95%
Percent Growth ([12]; Log10 Concentration −5.0): 42%
Percent Growth ([12]; Log10 Concentration −6.0): 79%
Percent Growth ([12]; Log10 Concentration −7.0): 75%
Percent Growth ([12]; Log10 Concentration −8.0): 87%
GI50 [13]: 2030 nM
TGI [13]: 6.16E−6
Percent Growth ([13]; Log10 Concentration −4.0): −97%
Percent Growth ([13]; Log10 Concentration −5.0): −22%
Percent Growth ([13]; Log10 Concentration −6.0): 82%
Percent Growth ([13]; Log10 Concentration −7.0): 91%
Percent Growth ([13]; Log10 Concentration −8.0): 97%
GI50 [14]: 2050 nM
TGI [14]: 5.71E−6
Percent Growth ([14]; Log10 Concentration −4.0): −39%
Percent Growth ([14]; Log10 Concentration −5.0): −27%
Percent Growth ([14]; Log10 Concentration −6.0): 85%
Percent Growth ([14]; Log10 Concentration −7.0): 85%
Percent Growth ([14]; Log10 Concentration −8.0): 94%
GI50 [15]: 1460 nM
TGI [15]: 4.37E−6
Percent Growth ([15]; Log10 Concentration −4.0): −86%
Percent Growth ([15]; Log10 Concentration −5.0): −38%
Percent Growth ([15]; Log10 Concentration −6.0): 67%
Percent Growth ([15]; Log10 Concentration −7.0): 97%
Percent Growth ([15]; Log10 Concentration −8.0): 99%
GI50 [16]: 10800 nM
TGI [16]: 2.41E−5
Percent Growth ([16]; Log10 Concentration −4.0): −89%
Percent Growth ([16]; Log10 Concentration −5.0): 55%
Percent Growth ([16]; Log10 Concentration −6.0): 97%
Percent Growth ([16]; Log10 Concentration −7.0): 99%
Percent Growth ([16]; Log10 Concentration −8.0): 101%
GI50 [17]: 2010 nM
TGI [17]: 6.59E−6
Percent Growth ([17]; Log10 Concentration −4.0): −84%
Percent Growth ([17]; Log10 Concentration −5.0): −18%
Percent Growth ([17]; Log10 Concentration −6.0): 79%
Percent Growth ([17]; Log10 Concentration −7.0): 92%
Percent Growth ([17]; Log10 Concentration −8.0): 101%
GI50 [18]: 11300 nM
TGI [18]: 2.74E−5
Percent Growth ([18]; Log10 Concentration −4.0): −73%
Percent Growth ([18]; Log10 Concentration −5.0): 57%
Percent Growth ([18]; Log10 Concentration −6.0): 93%
Percent Growth ([18]; Log10 Concentration −7.0): 97%
Percent Growth ([18]; Log10 Concentration −8.0): 98%
GI50 [19]: 2720 nM
TGI [19]: 1.06E−5
Percent Growth ([19]; Log10 Concentration −4.0): −89%
Percent Growth ([19]; Log10 Concentration −5.0): 3%
Percent Growth ([19]; Log10 Concentration −6.0): 86%
Percent Growth ([19]; Log10 Concentration −7.0): 94%
Percent Growth ([19]; Log10 Concentration −8.0): 98%
